Tests used:
OVCAR-4 = assay: NCI 60 cell line panel (SRB), OVCAR-4; format: cell-based; conditions: Homo sapiens; OVCAR-4, Ovarian Cancer; single dose of 10 μM; read-out: Cell Growth Percent
SF-295 = assay: NCI 60 cell line panel (SRB), SF-295; format: cell-based; conditions: Homo sapiens; SF-295, CNS Cancer; single dose of 10 μM; read-out: Cell Growth Percent
MDA-MB-435 = assay: NCI 60 cell line panel (SRB), MDA-MB-435; format: cell-based; conditions: Homo sapiens; MDA-MB-435, Melanoma; single dose of 10 μM; read-out: Cell Growth Percent
HS 578T = assay: NCI 60 cell line panel (SRB), HS 578T; format: cell-based; conditions: Homo sapiens, Breast Cancer, single dose of 10 μM, read-out: Cell Growth Percent
BT-549 = assay: NCI 60 cell line panel (SRB), BT-549; format: cell-based; conditions: Homo sapiens; BT-549, Breast Cancer; single dose of 10 μM; read-out: Cell Growth Percent
MDA-MB-468 = assay: NCI 60 cell line panel (SRB), MDA-MB-468; format: cell-based; conditions: Homo sapiens; MDA-MB-468, Breast Cancer; single dose of 10 μM; read-out: Cell Growth Percent
SNB-75 = assay: NCI 60 cell line panel (SRB), SNB-75; format: cell-based; conditions: Homo sapiens; SNB-75, CNS Cancer; single dose of 10 μM; read-out: Cell Growth Percent
HL-60(TB) = assay: NCI 60 cell line panel (SRB), HL-60(TB); format: cell-based; conditions: Homo sapiens, Leukemia, single dose of 10 μM, read-out: Cell Growth Percent
HCT-116 = assay: NCI 60 cell line panel (SRB), HCT-116; format: cell-based; conditions: Homo sapiens; HCT-116, Colon Cancer; single dose of 10 μM; read-out: Cell Growth Percent
OVCAR-5 = assay: NCI 60 cell line panel (SRB), OVCAR-5; format: cell-based; conditions: Homo sapiens; OVCAR-5, Ovarian Cancer; single dose of 10 μM; read-out: Cell Growth Percent
SK-MEL-5 = assay: NCI 60 cell line panel (SRB), SK-MEL-5; format: cell-based; conditions: Homo sapiens; SK-MEL-5, Melanoma; single dose of 10 μM; read-out: Cell Growth Percent
786-0 = assay: NCI 60 cell line panel (SRB), 786-0; format: cell-based; conditions: Homo sapiens; 786-0, Renal Cancer; single dose of 10 μM; read-out: Cell Growth Percent
NCI/ADR-RES = assay: NCI 60 cell line panel (SRB), NCI/ADR-RES; format: cell-based; conditions: Homo sapiens, Ovarian Cancer, single dose of 10 μM, read-out: Cell Growth Percent
IGROV1 = assay: NCI 60 cell line panel (SRB), IGROV1; format: cell-based; conditions: Homo sapiens, IGROV-1; IGROV1, Ovarian Cancer; single dose of 10 μM; read-out: Cell Growth Percent
HOP-92 = assay: NCI 60 cell line panel (SRB), HOP-92; format: cell-based; conditions: Homo sapiens; HOP-92, Non-Small Cell Lung Cancer; single dose of 10 μM; read-out: Cell Growth Percent
TK-10 = assay: NCI 60 cell line panel (SRB), TK-10; format: cell-based; conditions: Homo sapiens; TK-10, Renal Cancer; single dose of 10 μM; read-out: Cell Growth Percent
LOX IMVI = assay: NCI 60 cell line panel (SRB), LOX IMVI; format: cell-based; conditions: Homo sapiens, Melanoma, single dose of 10 μM, read-out: Cell Growth Percent
NCI-H23 = assay: NCI 60 cell line panel (SRB), NCI-H23; format: cell-based; conditions: Homo sapiens; NCI-H23, Non-Small Cell Lung Cancer; single dose of 10 μM; read-out: Cell Growth Percent
T-47D = assay: NCI 60 cell line panel (SRB), T-47D; format: cell-based; conditions: Homo sapiens, T47D, Breast Cancer, single dose of 10 μM, read-out: Cell Growth Percent
CCRF-CEM = assay: NCI 60 cell line panel (SRB), CCRF-CEM; format: cell-based; conditions: Homo sapiens, Leukemia, single dose of 10 μM, read-out: Cell Growth Percent
SN12C = assay: NCI 60 cell line panel (SRB), SN12C; format: cell-based; conditions: Homo sapiens, Renal Cancer, single dose of 10 μM, read-out: Cell Growth Percent
VEGFR-2 (KDR) = target: T1, VEGFR-2 (KDR) (Homo sapiens, UniProt P35968); assay: In vitro VEGFR-2 tyrosine kinase activity (Kinase-Glo Plus luminescence, BPS Bioscience); format: biochemical; conditions: for IC50: 5 concentrations 1 nM - 10 μM
T1 construct: purchased BPS Bioscience 40301

HCC-2998 = assay: NCI 60 cell line panel (SRB), HCC-2998; format: cell-based; conditions: Homo sapiens; HCC-2998, Colon Cancer; single dose of 10 μM; read-out: Cell Growth Percent
[1] = tested on: HUVEC umbilical vein endothelial cells; assay: In vitro HUVEC anti-proliferative assay (alamarBlue); format: cell-based; conditions: Homo sapiens, HUVEC proliferation at 10 μM, 72 hours; for activity at 10 µM: read-out: % Cell growth; for inhibition at 10 µM: read-out: % Cell inhibition
UACC-257 = assay: NCI 60 cell line panel (SRB), UACC-257; format: cell-based; conditions: Homo sapiens; UACC-257, Melanoma; single dose of 10 μM; read-out: Cell Growth Percent

T1 sequence (P35968 20-1356): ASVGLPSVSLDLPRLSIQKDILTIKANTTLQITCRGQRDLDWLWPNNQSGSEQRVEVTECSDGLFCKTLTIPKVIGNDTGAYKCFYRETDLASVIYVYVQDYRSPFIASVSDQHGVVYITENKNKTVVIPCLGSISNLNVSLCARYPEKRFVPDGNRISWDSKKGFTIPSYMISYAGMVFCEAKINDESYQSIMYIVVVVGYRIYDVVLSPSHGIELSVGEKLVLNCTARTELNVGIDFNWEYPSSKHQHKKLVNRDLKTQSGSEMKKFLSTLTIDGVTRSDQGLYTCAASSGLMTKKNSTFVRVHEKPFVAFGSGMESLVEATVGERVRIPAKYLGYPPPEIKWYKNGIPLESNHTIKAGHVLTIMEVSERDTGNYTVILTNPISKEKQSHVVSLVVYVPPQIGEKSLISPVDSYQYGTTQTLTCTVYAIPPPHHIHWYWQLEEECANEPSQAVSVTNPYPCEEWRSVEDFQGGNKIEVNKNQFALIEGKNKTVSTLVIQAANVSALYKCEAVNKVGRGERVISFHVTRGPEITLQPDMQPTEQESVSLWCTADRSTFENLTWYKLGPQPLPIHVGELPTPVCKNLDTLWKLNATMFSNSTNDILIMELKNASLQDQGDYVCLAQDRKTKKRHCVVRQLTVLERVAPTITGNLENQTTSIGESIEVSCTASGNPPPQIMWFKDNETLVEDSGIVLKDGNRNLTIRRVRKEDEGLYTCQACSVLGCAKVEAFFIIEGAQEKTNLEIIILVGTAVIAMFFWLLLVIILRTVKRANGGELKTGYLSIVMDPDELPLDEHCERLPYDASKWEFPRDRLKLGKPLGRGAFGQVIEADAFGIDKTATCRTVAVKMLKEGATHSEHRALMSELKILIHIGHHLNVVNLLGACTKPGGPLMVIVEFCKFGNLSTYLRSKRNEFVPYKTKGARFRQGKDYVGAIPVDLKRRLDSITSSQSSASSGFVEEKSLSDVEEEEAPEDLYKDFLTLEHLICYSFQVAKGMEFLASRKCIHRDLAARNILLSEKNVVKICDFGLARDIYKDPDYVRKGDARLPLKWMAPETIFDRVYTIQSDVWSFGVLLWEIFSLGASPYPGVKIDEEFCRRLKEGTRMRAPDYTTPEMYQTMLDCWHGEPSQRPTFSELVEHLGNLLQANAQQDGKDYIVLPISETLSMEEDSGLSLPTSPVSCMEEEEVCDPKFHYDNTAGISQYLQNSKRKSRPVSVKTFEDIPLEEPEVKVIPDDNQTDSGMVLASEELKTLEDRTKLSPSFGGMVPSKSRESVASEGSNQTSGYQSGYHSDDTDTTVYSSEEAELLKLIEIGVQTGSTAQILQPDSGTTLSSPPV

Structure (SMILES)	activity at 10 µM (OVCAR-4) [%]	activity at 10 µM (SF-295) [%]	activity at 10 µM (MDA-MB-435) [%]	activity at 10 µM (HS 578T) [%]	activity at 10 µM (BT-549) [%]	activity at 10 µM (MDA-MB-468) [%]	activity at 10 µM (SNB-75) [%]	activity at 10 µM (HL-60(TB)) [%]	activity at 10 µM (HCT-116) [%]	activity at 10 µM (OVCAR-5) [%]	activity at 10 µM (SK-MEL-5) [%]	activity at 10 µM (786-0) [%]	activity at 10 µM (NCI/ADR-RES) [%]	activity at 10 µM (IGROV1) [%]	activity at 10 µM (HOP-92) [%]	activity at 10 µM (TK-10) [%]	activity at 10 µM (LOX IMVI) [%]	activity at 10 µM (NCI-H23) [%]	activity at 10 µM (T-47D) [%]	activity at 10 µM (CCRF-CEM) [%]	also measured
COc1cccc(NC(=O)Nc2ccc(Oc3ncnc4sc5c(c34)CCCC5)cc2)c1 [Compound 21c]	56.6	76.1	73.1	60.9	88.5	69.3	50.3	106	55.8	105	63.6	97.6	70.5	88.7	79	73.5	61.5	67.7	41.7	64.4	activity at 10 µM (SN12C): 78.2%; IC50 (VEGFR-2 (KDR)): 47 nM; activity at 10 µM (HCC-2998): 102%; activity at 10 µM [1]: 20.9%; inhibition at 10 µM [1]: 79.2%; activity at 10 µM (UACC-257): 100%
O=C(Nc1ccccc1)Nc1ccc(Oc2ncnc3sc4c(c23)CCCC4)cc1 [Compound 21a]	55.1	64.9	19.2	73.6	63.8	53.6	45.6	102	67.4	107	67.9	84.8	63.2	87.2	78.4	86.1	69.5	66.4	37.9	64.9	activity at 10 µM (SN12C): 83.3%; IC50 (VEGFR-2 (KDR)): 454 nM; inhibition at 10 µM (VEGFR-2 (KDR); single dose concentration of 10 μM): > 70%; activity at 10 µM (HCC-2998): 89.6%; activity at 10 µM [1]: 35.7%; inhibition at 10 µM [1]: 64.3%; activity at 10 µM (UACC-257): 90.4%
Cc1cccc(NC(=O)Nc2ccc(Oc3ncnc4sc5c(c34)CCCC5)cc2)c1 [Compound 21b]	61.2	67.6	79.3	76.8	71.9	87.2	51.9	98.4	62.1	114	72.9	87	71.5	89	80.9	72.5	77.3	72.4	49.2	70	activity at 10 µM (SN12C): 75.9%; IC50 (VEGFR-2 (KDR)): 33.4 nM; activity at 10 µM (HCC-2998): 104%; activity at 10 µM [1]: 18%; inhibition at 10 µM [1]: 82%; activity at 10 µM (UACC-257): 107%

From publication PMC4832243, “Discovery of Potent VEGFR-2 Inhibitors based on Furopyrimidine and Thienopyrimidne Scaffolds as Cancer Targeting Agents” (Scientific Reports, 2016)
